Data published in US11530219B2, “Ligands to cereblon (CRBN)” (DANA-FARBER CANCER INSTITUTE, INC., priority 2018, dated 2022).
pEC50, pIC50, pKi: −log10 of the molar value.

Assays:
[1] = molecular target: DDB1ΔB-CRBN (Homo sapiens (Human), UniProt Q96SW2); experiment: Atto565-Lenalidomide displacement assay (fluorescence polarization, CRBN binding); details: for pIC50: 10 nM Atto565-Lenalidomide, 100 nM DDB1ΔB-CRBN, n=2; for pKi: calculated from IC50 with probe Kd of 40 nM, competitive model
Description: Various inventive compounds were analyzed for cereblon binding. […] Compound titrations were incubated for 60 min at room temperature. The change in fluorescence polarization was monitored using a PHERAstar® FS microplate reader (BMG Labtech) for 1 h in 120s cycles.

[2] = molecular target: CRBN (Homo sapiens (Human), UniProt Q96SW2); experiment: Cellular CRBN dBET6 displacement assay (BRD4BD2-GFP/mCherry reporter cells); assay type: cell-based; details: Flip-In 293 cells stably expressing BRD4BD2-GFP, 100 nM dBET6, 5 hours; read-out: Cellular CRBN-BRD4 dBET6 displacement EC50
Chain of CRBN (Q96SW2 whole entry): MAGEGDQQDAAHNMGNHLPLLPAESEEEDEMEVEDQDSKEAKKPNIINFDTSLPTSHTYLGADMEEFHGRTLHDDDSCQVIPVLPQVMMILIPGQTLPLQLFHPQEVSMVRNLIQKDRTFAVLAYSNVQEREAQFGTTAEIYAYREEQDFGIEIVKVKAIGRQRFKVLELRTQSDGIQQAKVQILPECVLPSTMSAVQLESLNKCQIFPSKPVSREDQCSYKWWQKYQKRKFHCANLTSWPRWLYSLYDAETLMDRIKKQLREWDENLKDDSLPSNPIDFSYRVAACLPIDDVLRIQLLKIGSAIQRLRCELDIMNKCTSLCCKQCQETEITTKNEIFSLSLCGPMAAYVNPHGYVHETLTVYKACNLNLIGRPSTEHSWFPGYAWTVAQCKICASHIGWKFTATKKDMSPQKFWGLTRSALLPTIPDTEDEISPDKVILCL
Description: BRD4BD2 were subcloned into mammalian pcDNA5/FRT Vector (Ampicillin and Hygromycin B resistant) modified to contain MCS-eGFP-P2A-mCherry. […] Following a 2-3 passage cycle, FACS (FACSAria™ II, BD) was used to enrich for cells expressing eGFP and mCherry.
Signal from minimal 3000 events per well was acquired and the eGFP and mCherry florescence monitored. Data was analyzed using FlowJo® (FlowJo®, LCC). […] The eGFP protein abundance relative to mCherry was then quantified as a ten-fold amplified ratio for each individual cell using the formula: 10×eGFP/mCherry. The median of the ratio was then calculated per set, normalized to the median of the DMSO ratio.
This assay provided a readout of cellular CRBN binding impacted by the permeability of the molecule tested.

Chain of DDB1ΔB-CRBN (Q96SW2 whole entry, stated change not applied): as the sequence (Q96SW2 whole entry) above

Row | pIC50 [1] | pKi [1] | pEC50 [2] | Structure (SMILES)
1 | 4.53 | 5.07 | – | O=C1CCC(N2Cc3c(NC(=O)CNc4ccnc(Nc5ccccc5F)n4)cccc3C2=O)C(=O)N1 (stereo not shown) [Compound 1, N-(2-(2,6-dioxopiperidin-3-yl)-1-oxoisoindolin-4-yl)-2-((2-((2-fluorophenyl)amino)pyrimidin-4-yl)amino)acetamide]
2 | 4.32 | 4.87 | 4.32 | O=C1CCC(N2Cc3c(NC(=O)CNc4ccnc(Nc5ccc6c(c5)CCC6)n4)cccc3C2=O)C(=O)N1 (stereo not shown) [Compound 2, 2-((2-((2,3-dihydro-1H-inden-5-yl)amino)pyrimidin-4-yl)amino)-N-(2-(2,6-dioxopiperidin-3-yl)-1-oxoisoindolin-4-yl)acetamide]
3 | 4.90 | 4.87 | – | O=C1CCC(N2Cc3c(NC(=O)CNc4ccnc(NCc5ccc6c(c5)OCO6)n4)cccc3C2=O)C(=O)N1 (stereo not shown) [Compound 3, 2-((2-((benzo[d][1,3]dioxol-5-ylmethyl)amino)pyrimidin-4-yl)amino)-N-(2-(2,6-dioxopiperidin-3-yl)-1-oxoisoindolin-4-yl)acetamide]
4 | 4.37 | 4.91 | – | O=C1CCC(N2Cc3c(NC(=O)CNc4ccnc(Nc5ccc6c(c5)OCO6)n4)cccc3C2=O)C(=O)N1 (stereo not shown) [Compound 5, 2-((2-(benzo[d][1,3]dioxol-5-ylamino)pyrimidin-4-yl)amino)-N-(2-(2,6-dioxopiperidin-3-yl)-1-oxoisoindolin-4-yl)acetamide]
5 | 4.64 | 5.19 | – | O=C1CCC(N2Cc3c(NC(=O)CNc4ccnc(NCCCN5CCCC5=O)n4)cccc3C2=O)C(=O)N1 (stereo not shown) [Compound 6, N-(2-(2,6-dioxopiperidin-3-yl)-1-oxoisoindolin-4-yl)-2-((2-((3-(2-oxopyrrolidin-1-yl)propyl)amino)pyrimidin-4-yl)amino)acetamide]
6 | 4.41 | 4.95 | – | COc1ccc(Nc2nccc(NCC(=O)Nc3cccc4c3CN(C3CCC(=O)NC3=O)C4=O)n2)cc1 (stereo not shown) [Compound 7, N-(2-(2,6-dioxopiperidin-3-yl)-1-oxoisoindolin-4-yl)-2-((2-((4-methoxyphenyl)amino)pyrimidin-4-yl)amino)acetamide]
7 | 4.66 | 5.20 | – | COc1cccc(-c2nccc(NCC(=O)Nc3cccc4c3CN(C3CCC(=O)NC3=O)C4=O)n2)c1 (stereo not shown) [Compound 9, N-(2-(2,6-dioxopiperidin-3-yl)-1-oxoisoindolin-4-yl)-2-((2-(3-methoxyphenyl)pyrimidin-4-yl)amino)acetamide]
8 | 4.72 | 5.27 | – | COc1ccc(OC)c(-c2nccc(NCC(=O)Nc3cccc4c3CN(C3CCC(=O)NC3=O)C4=O)n2)c1 (stereo not shown) [Compound 10, 2-((2-(2,5-dimethoxyphenyl)pyrimidin-4-yl)amino)-N-(2-(2,6-dioxopiperidin-3-yl)-1-oxoisoindolin-4-yl)acetamide]
9 | 4.83 | 5.38 | – | O=C1CCC(N2Cc3c(NC(=O)CNc4ccnc(-c5ccc(F)cc5)n4)cccc3C2=O)C(=O)N1 (stereo not shown) [Compound 11, N-(2-(2,6-dioxopiperidin-3-yl)-1-oxoisoindolin-4-yl)-2-((2-(4-fluorophenyl)pyrimidin-4-yl)amino)acetamide]
10 | 4.86 | 5.41 | – | CC(=O)c1ccc(-c2nccc(NCC(=O)Nc3cccc4c3CN(C3CCC(=O)NC3=O)C4=O)n2)cc1 (stereo not shown) [Compound 12, 2-((2-(4-acetylphenyl)pyrimidin-4-yl)amino)-N-(2-(2,6-dioxopiperidin-3-yl)-1-oxoisoindolin-4-yl)acetamide]
11 | 4.54 | 5.08 | – | O=C1CCC(N2Cc3c(NC(=O)CNc4ccnc(-c5cc6ccccc6o5)n4)cccc3C2=O)C(=O)N1 (stereo not shown) [Compound 13, 2-((2-(benzofuran-2-yl)pyrimidin-4-yl)amino)-N-(2-(2,6-dioxopiperidin-3-yl)-1-oxoisoindolin-4-yl)acetamide]
12 | 4.82 | 5.37 | – | COc1ccccc1Nc1nccc(NCC(=O)Nc2cccc3c2CN(C2CCC(=O)NC2=O)C3=O)n1 (stereo not shown) [Compound 15, N-(2-(2,6-dioxopiperidin-3-yl)-1-oxoisoindolin-4-yl)-2-((2-((2-methoxyphenyl)amino)pyrimidin-4-yl)amino)acetamide]
13 | 6.29 | 6.89 | – | O=C1CCC(N2Cc3c(NC(=O)CNc4ccnc(N5CCN(c6cccc(C(F)(F)F)c6)CC5)n4)cccc3C2=O)C(=O)N1 (stereo not shown) [Compound 16, N-(2-(2,6-dioxopiperidin-3-yl)-1-oxoisoindolin-4-yl)-2-((2-(4-(3-(trifluoromethyl)phenyl)piperazin-1-yl)pyrimidin-4-yl)amino)acetamide]
14 | 5.46 | 6.01 | – | CN(c1ccccc1)c1nccc(NCC(=O)Nc2cccc3c2CN(C2CCC(=O)NC2=O)C3=O)n1 (stereo not shown) [Compound 17, N-(2-(2,6-dioxopiperidin-3-yl)-1-oxoisoindolin-4-yl)-2-((2-(methyl(phenyl)amino)pyrimidin-4-yl)amino)acetamide]
15 | – | – | 6.18 | CC(C)n1cnc2c(Nc3cccc4c3CN(C3CCC(=O)NC3=O)C4=O)nc(Nc3ccc4c(c3)CCC4)nc21 (stereo not shown) [Compound 53, 3-(4-((2-((2,3-dihydro-1H-inden-5-yl)amino)-9-isopropyl-9H-purin-6-yl)amino)-1-oxoisoindolin-2-yl)piperidine-2,6-dione]

Row | Structure (SMILES) | pIC50 [1] | pKi [1] | pEC50 [2]
16 | O=C1CCC(N2Cc3c(NC(=O)CNc4ccnc(N5CCC[C@H]5CO)n4)cccc3C2=O)C(=O)N1 (stereo partly drawn) [Compound 4, N-(2-(2,6-dioxopiperidin-3-yl)-1-oxoisoindolin-4-yl)-2-((2-((S)-2-(hydroxymethyl)pyrrolidin-1-yl)pyrimidin-4-yl)amino)acetamide] | 5.07 | 5.62 | –
17 | O=C1CCC(N2Cc3c(NC(=O)CNc4ccnc(N5CCC[C@@H]5CO)n4)cccc3C2=O)C(=O)N1 (stereo partly drawn) [Compound 14, N-(2-(2,6-dioxopiperidin-3-yl)-1-oxoisoindolin-4-yl)-2-((2-((R)-2-(hydroxymethyl)pyrrolidin-1-yl)pyrimidin-4-yl)amino)acetamide] | 5.80 | 6.36 | –
